Results reported in ChEMBL document CHEMBL1671617, “Correlation of antimicrobial resistance with beta-lactamases, the OmpA-like porin, and efflux pumps in clinical isolates of Acinetobacter baumannii endemic to New York City” (2008).
In brackets after ≈: the same amount, converted by molar mass.

Each compound was assayed on Acinetobacter baumannii (assay: Antimicrobial activity against ISAba1 linked with the blaOXA-51-type beta-lactamase harboring Acinetobacter baumannii zeta clonal group isolate 21 expressing ampC, ompA, adeB, adeM, aacC2, blaSHV-5 by Etest method).
Assay type: functional

SMILES | MIC [µg/mL]
NCC[C@H](O)C(=O)N[C@@H]1C[C@H](N)[C@@H](O[C@H]2O[C@H](CN)[C@@H](O)[C@H](O)[C@H]2O)[C@H](O)[C@H]1O[C@H]1O[C@H](CO)[C@@H](O)[C@H](N)[C@H]1O [AMIKACIN] | 3 (≈ 5.12 µM)

These compounds were tested on Acinetobacter baumannii (assay: Antimicrobial activity against ISAba1 linked with the blaOXA-51-type beta-lactamase harboring Acinetobacter baumannii zeta clonal group isolate 22 expressing ampC, ompA, adeB, adeM, aadA1, aacA4, aacC2, blaSHV-5 by Etest method).
Assay type: functional

SMILES | MIC [µg/mL]
NCC[C@H](O)C(=O)N[C@@H]1C[C@H](N)[C@@H](O[C@H]2O[C@H](CN)[C@@H](O)[C@H](O)[C@H]2O)[C@H](O)[C@H]1O[C@H]1O[C@H](CO)[C@@H](O)[C@H](N)[C@H]1O [AMIKACIN] | 48 (≈ 82 µM)

What follows are compounds tested on Acinetobacter baumannii (assay: Antimicrobial activity against ISAba1 linked with the blaOXA-51-type beta-lactamase harboring Acinetobacter baumannii zeta clonal group isolate 23 expressing ampC, ompA, adeB, adeM, aadA1, aacA4, aacC2, aphA6 by Etest method).
Assay type: functional

SMILES | MIC [µg/mL]
NCC[C@H](O)C(=O)N[C@@H]1C[C@H](N)[C@@H](O[C@H]2O[C@H](CN)[C@@H](O)[C@H](O)[C@H]2O)[C@H](O)[C@H]1O[C@H]1O[C@H](CO)[C@@H](O)[C@H](N)[C@H]1O [AMIKACIN] | 24 (≈ 41 µM)

Each compound was assayed on Acinetobacter baumannii (assay: Antimicrobial activity against ISAba1 linked with the blaOXA-51-type beta-lactamase harboring Acinetobacter baumannii zeta clonal group isolate 24 expressing ampC, ompA, adeB, adeM, aadA1, aacA4, aacC2, blaSHV-5 by Etest method).
Assay type: functional

SMILES | MIC [µg/mL]
NCC[C@H](O)C(=O)N[C@@H]1C[C@H](N)[C@@H](O[C@H]2O[C@H](CN)[C@@H](O)[C@H](O)[C@H]2O)[C@H](O)[C@H]1O[C@H]1O[C@H](CO)[C@@H](O)[C@H](N)[C@H]1O [AMIKACIN] | 32 (≈ 54.6 µM)

What follows are compounds tested on Acinetobacter baumannii (assay: Antimicrobial activity against ISAba1 linked with the blaOXA-51-type beta-lactamase harboring Acinetobacter baumannii zeta clonal group isolate 25 expressing ampC, ompA, adeB, adeM, aadA1, aacA4, aacC2, blaSHV-5 by Etest method).
Assay type: functional

SMILES | MIC [µg/mL]
NCC[C@H](O)C(=O)N[C@@H]1C[C@H](N)[C@@H](O[C@H]2O[C@H](CN)[C@@H](O)[C@H](O)[C@H]2O)[C@H](O)[C@H]1O[C@H]1O[C@H](CO)[C@@H](O)[C@H](N)[C@H]1O [AMIKACIN] | 32 (≈ 54.6 µM)

These compounds were tested on Acinetobacter baumannii (assay: Antimicrobial activity against ISAba1 linked with the blaOXA-51-type beta-lactamase harboring Acinetobacter baumannii zeta clonal group isolate 26 expressing ampC, ompA, adeB, adeM, aadA1, aacA4, aacC2, blaSHV-5 by Etest method).
Assay type: functional

SMILES | MIC [µg/mL]
NCC[C@H](O)C(=O)N[C@@H]1C[C@H](N)[C@@H](O[C@H]2O[C@H](CN)[C@@H](O)[C@H](O)[C@H]2O)[C@H](O)[C@H]1O[C@H]1O[C@H](CO)[C@@H](O)[C@H](N)[C@H]1O [AMIKACIN] | 32 (≈ 54.6 µM)

The compounds below were run on Acinetobacter baumannii (assay: Antimicrobial activity against Acinetobacter baumannii lambda clonal group isolate 27 expressing ampC, ompA, adeB, adeM, aadB, aadA1 by Etest method).
Assay type: functional

SMILES | MIC [µg/mL]
NCC[C@H](O)C(=O)N[C@@H]1C[C@H](N)[C@@H](O[C@H]2O[C@H](CN)[C@@H](O)[C@H](O)[C@H]2O)[C@H](O)[C@H]1O[C@H]1O[C@H](CO)[C@@H](O)[C@H](N)[C@H]1O [AMIKACIN] | < 0.5

The compounds below were run on Acinetobacter baumannii (assay: Antimicrobial activity against ISAba1 linked with the blaOXA-51-type beta-lactamase harboring Acinetobacter baumannii lambda clonal group isolate 28 expressing ampC, ompA, adeM, aadB, aadA1 by Etest method).
Assay type: functional

SMILES | MIC [µg/mL]
NCC[C@H](O)C(=O)N[C@@H]1C[C@H](N)[C@@H](O[C@H]2O[C@H](CN)[C@@H](O)[C@H](O)[C@H]2O)[C@H](O)[C@H]1O[C@H]1O[C@H](CO)[C@@H](O)[C@H](N)[C@H]1O [AMIKACIN] | 3 (≈ 5.12 µM)

The compounds below were run on Acinetobacter baumannii (assay: Antimicrobial activity against ISAba1 linked with the blaOXA-51-type beta-lactamase harboring Acinetobacter baumannii lambda clonal group isolate 29 expressing ampC, ompA, adeM, aadB, aadA1 by Etest method).
Assay type: functional

SMILES | MIC [µg/mL]
NCC[C@H](O)C(=O)N[C@@H]1C[C@H](N)[C@@H](O[C@H]2O[C@H](CN)[C@@H](O)[C@H](O)[C@H]2O)[C@H](O)[C@H]1O[C@H]1O[C@H](CO)[C@@H](O)[C@H](N)[C@H]1O [AMIKACIN] | 3 (≈ 5.12 µM)

The compounds below were run on Acinetobacter baumannii (assay: Antimicrobial activity against ISAba1 linked with the blaOXA-51-type beta-lactamase harboring Acinetobacter baumannii lambda clonal group isolate 30 expressing ampC, ompA, adeB, adeM, aadB, aadA1 by Etest method).
Assay type: functional

SMILES | MIC [µg/mL]
NCC[C@H](O)C(=O)N[C@@H]1C[C@H](N)[C@@H](O[C@H]2O[C@H](CN)[C@@H](O)[C@H](O)[C@H]2O)[C@H](O)[C@H]1O[C@H]1O[C@H](CO)[C@@H](O)[C@H](N)[C@H]1O [AMIKACIN] | 48 (≈ 82 µM)

Each compound was assayed on Acinetobacter baumannii (assay: Antimicrobial activity against Acinetobacter baumannii nu clonal group isolate 31 expressing ampC, ompA, adeB, adeM, aadB, aadA2 by Etest method).
Assay type: functional

SMILES | MIC [µg/mL]
NCC[C@H](O)C(=O)N[C@@H]1C[C@H](N)[C@@H](O[C@H]2O[C@H](CN)[C@@H](O)[C@H](O)[C@H]2O)[C@H](O)[C@H]1O[C@H]1O[C@H](CO)[C@@H](O)[C@H](N)[C@H]1O [AMIKACIN] | 4 (≈ 6.83 µM)

What follows are compounds tested on Acinetobacter baumannii (assay: Antimicrobial activity against Acinetobacter baumannii nu clonal group isolate 32 expressing ampC, ompA, adeB, adeM, aadB, aadA2 by Etest method).
Assay type: functional

SMILES | MIC [µg/mL]
NCC[C@H](O)C(=O)N[C@@H]1C[C@H](N)[C@@H](O[C@H]2O[C@H](CN)[C@@H](O)[C@H](O)[C@H]2O)[C@H](O)[C@H]1O[C@H]1O[C@H](CO)[C@@H](O)[C@H](N)[C@H]1O [AMIKACIN] | 4 (≈ 6.83 µM)

What follows are compounds tested on Acinetobacter baumannii (assay: Antimicrobial activity against Acinetobacter baumannii nu clonal group isolate 33 expressing ampC, ompA, adeB, adeM by Etest method).
Assay type: functional

SMILES | MIC [µg/mL]
NCC[C@H](O)C(=O)N[C@@H]1C[C@H](N)[C@@H](O[C@H]2O[C@H](CN)[C@@H](O)[C@H](O)[C@H]2O)[C@H](O)[C@H]1O[C@H]1O[C@H](CO)[C@@H](O)[C@H](N)[C@H]1O [AMIKACIN] | 3 (≈ 5.12 µM)

These compounds were tested on Acinetobacter baumannii (assay: Antimicrobial activity against Acinetobacter baumannii nu clonal group isolate 34 expressing ampC, ompA, adeB, adeM by Etest method).
Assay type: functional

SMILES | MIC [µg/mL]
NCC[C@H](O)C(=O)N[C@@H]1C[C@H](N)[C@@H](O[C@H]2O[C@H](CN)[C@@H](O)[C@H](O)[C@H]2O)[C@H](O)[C@H]1O[C@H]1O[C@H](CO)[C@@H](O)[C@H](N)[C@H]1O [AMIKACIN] | 3 (≈ 5.12 µM)

What follows are compounds tested on Acinetobacter baumannii (assay: Antimicrobial activity against Acinetobacter baumannii eta clonal group isolate 35 expressing ampC, ompA, adeB, adeM by Etest method).
Assay type: functional

SMILES | MIC [µg/mL]
NCC[C@H](O)C(=O)N[C@@H]1C[C@H](N)[C@@H](O[C@H]2O[C@H](CN)[C@@H](O)[C@H](O)[C@H]2O)[C@H](O)[C@H]1O[C@H]1O[C@H](CO)[C@@H](O)[C@H](N)[C@H]1O [AMIKACIN] | 3 (≈ 5.12 µM)

These compounds were tested on Acinetobacter baumannii (assay: Antimicrobial activity against Acinetobacter baumannii eta clonal group isolate 36 expressing ampC, ompA, adeB, adeM by Etest method).
Assay type: functional

SMILES | MIC [µg/mL]
NCC[C@H](O)C(=O)N[C@@H]1C[C@H](N)[C@@H](O[C@H]2O[C@H](CN)[C@@H](O)[C@H](O)[C@H]2O)[C@H](O)[C@H]1O[C@H]1O[C@H](CO)[C@@H](O)[C@H](N)[C@H]1O [AMIKACIN] | 3 (≈ 5.12 µM)

The compounds below were run on Acinetobacter baumannii (assay: Antimicrobial activity against Acinetobacter baumannii unique clonal group isolate 37 expressing ampC, ompA, adeB, adeM by Etest method).
Assay type: functional

SMILES | MIC [µg/mL]
NCC[C@H](O)C(=O)N[C@@H]1C[C@H](N)[C@@H](O[C@H]2O[C@H](CN)[C@@H](O)[C@H](O)[C@H]2O)[C@H](O)[C@H]1O[C@H]1O[C@H](CO)[C@@H](O)[C@H](N)[C@H]1O [AMIKACIN] | 6 (≈ 10.2 µM)

These compounds were tested on Acinetobacter baumannii (assay: Antimicrobial activity against Acinetobacter baumannii unique clonal group isolate 38 expressing ampC, ompA, adeB, adeM by Etest method).
Assay type: functional

SMILES | MIC [µg/mL]
NCC[C@H](O)C(=O)N[C@@H]1C[C@H](N)[C@@H](O[C@H]2O[C@H](CN)[C@@H](O)[C@H](O)[C@H]2O)[C@H](O)[C@H]1O[C@H]1O[C@H](CO)[C@@H](O)[C@H](N)[C@H]1O [AMIKACIN] | 1.5 (≈ 2.56 µM)

Each compound was assayed on Acinetobacter baumannii (assay: Antimicrobial activity against Acinetobacter baumannii unique clonal group isolate 39 expressing ampC, ompA, adeM by Etest method).
Assay type: functional

SMILES | MIC [µg/mL]
NCC[C@H](O)C(=O)N[C@@H]1C[C@H](N)[C@@H](O[C@H]2O[C@H](CN)[C@@H](O)[C@H](O)[C@H]2O)[C@H](O)[C@H]1O[C@H]1O[C@H](CO)[C@@H](O)[C@H](N)[C@H]1O [AMIKACIN] | 1.5 (≈ 2.56 µM)

The compounds below were run on Acinetobacter baumannii (assay: Antimicrobial activity against ISAba1 linked with the blaOXA-51-type beta-lactamase harboring Acinetobacter baumannii unique clonal group isolate 40 expressing ampC, ompA, adeB, adeM, aadA1, aacA4, aacC2, blaSHV-5 by Etest method).
Assay type: functional

SMILES | MIC [µg/mL]
NCC[C@H](O)C(=O)N[C@@H]1C[C@H](N)[C@@H](O[C@H]2O[C@H](CN)[C@@H](O)[C@H](O)[C@H]2O)[C@H](O)[C@H]1O[C@H]1O[C@H](CO)[C@@H](O)[C@H](N)[C@H]1O [AMIKACIN] | 32 (≈ 54.6 µM)
